The results in this text go back to ChEMBL document CHEMBL4340516, “Synthesis and antitumor activity of novel steroidal imidazolium salt derivatives” (Eur J Med Chem, 2019).

Assay type in all cases: functional, cell-based
Experiment [1] concerns HL-60. The experiment is described as follows: Antiproliferative activity against human HL60 cells assessed as reduction in cell viability incubated for 48 hrs by MTS assay. To be noted: HL-60, 48 h.
Experiment [2] deals with SMMC-7721. The experiment is described as follows: Antiproliferative activity against human SMMC7721 cells assessed as reduction in cell viability incubated for 48 hrs by MTS assay. The note with it: SMMC-7721, 48 h.
The subject of experiment [3] is MCF7. The experiment is described as follows: Antiproliferative activity against human MCF7 cells assessed as reduction in cell viability incubated for 48 hrs by MTS assay. The note with it: MCF7, 48 h.
The subject of experiment [4] is A549. The experiment is described as follows: Antiproliferative activity against human A549 cells assessed as reduction in cell viability incubated for 48 hrs by MTS assay. To be noted: A549, 48 h.
In experiment [5] the test system is SW480. The experiment is described as follows: Antiproliferative activity against human SW480 cells assessed as reduction in cell viability incubated for 48 hrs by MTS assay. To be noted: SW480, 48 h.

As for `Cc1cc2c(cc1C)[n+](CC(=O)c1ccc3ccccc3c1)cn2[C@@H]1CC[C@@]2(C)C(=CC[C@H]3[C@@H]4C[C@@H]5O[C@]6(CC[C@@H](C)CO6)[C@@H](C)[C@@H]5[C@@]4(C)CC[C@@H]32)C1`, the IC50 in experiment [1] worked out at 0.45 µM; in experiment [2], 0.57 µM; in experiment [3], 3.05 µM; in experiment [4], 5.53 µM; in experiment [5] it was 3.1 µM.
The like results for `CC(C)CCC[C@@H](C)[C@H]1CC[C@H]2[C@@H]3CC=C4C[C@H](n5cc[n+](CC(=O)c6ccccc6)c5)CC[C@]4(C)[C@H]3CC[C@]12C` were, in that order, 6.85 µM, 1.49 µM, 8.41 µM, 8.42 µM and 9.03 µM.
The like results for `COc1ccc(C(=O)C[n+]2ccn([C@H]3CC[C@@]4(C)C(=CC[C@H]5[C@@H]6CC[C@H]([C@H](C)CCCC(C)C)[C@@]6(C)CC[C@@H]54)C3)c2)cc1` were, in that order, 7.97 µM, 1.52 µM, 8.71 µM, 8.75 µM and 10.7 µM.
For `COc1ccc(C(=O)C[n+]2ccn([C@@H]3CC[C@@]4(C)C(=CC[C@H]5[C@@H]6CC[C@H]([C@H](C)CCCC(C)C)[C@@]6(C)CC[C@@H]54)C3)c2)cc1`, in that order: 6 µM, 2.9 µM, 5.25 µM, 13.2 µM and 4.87 µM.
On to `C[C@@H]1CC[C@@]2(OC1)O[C@H]1C[C@H]3[C@@H]4CC=C5C[C@H](n6cc[n+](CC(=O)c7ccc8ccccc8c7)c6)CC[C@]5(C)[C@H]4CC[C@]3(C)[C@H]1[C@@H]2C`, for which the IC50 in experiment [1] is 0.96 µM; in experiment [2] it was 1.89 µM; in experiment [3], 2.27 µM; in experiment [4], 3.34 µM; in experiment [5], 3.62 µM.
For `CC(C)CCC[C@@H](C)[C@H]1CC[C@H]2[C@@H]3CC=C4C[C@H](n5c[n+](Cc6ccccc6Br)c6ccccc65)CC[C@]4(C)[C@H]3CC[C@]12C`, in that order: 4.47 µM, 1.56 µM, 8.97 µM, 7.31 µM and 10.6 µM.
For `CC(=O)O[C@H]1CC[C@@]2(C)C(=CC[C@H]3[C@@H]4CC[C@H](n5ccnc5)[C@@]4(C)CC[C@@H]32)C1`, in that order: over 20 µM, over 20 µM, over 20 µM, over 20 µM and over 20 µM.
With `CC(C)CCC[C@@H](C)[C@H]1CC[C@H]2[C@@H]3C[C@H](n4cc[n+](Cc5ccc6ccccc6c5)c4)[C@]45C[C@H]4CC[C@]5(C)[C@H]3CC[C@]12C`, the IC50 in experiment [1] is 1.64 µM; in experiment [2], 1.04 µM; in experiment [3], 8.04 µM; in experiment [4] it was 7.67 µM; in experiment [5], 7.48 µM.
The like results for `COc1ccc(C(=O)C[n+]2ccn([C@H]3C[C@H]4[C@@H]5CC[C@H]([C@H](C)CCCC(C)C)[C@@]5(C)CC[C@@H]4[C@@]4(C)CC[C@@H]5C[C@]534)c2)cc1` were, in that order, 1.52 µM, 1.1 µM, 6.54 µM, 6.68 µM and 7.18 µM.
As to `c1ccc2[nH]cnc2c1` [BENZIMIDAZOLE], the IC50 in experiment [1], in experiment [2], in experiment [3], in experiment [4] and in experiment [5] was over 20 µM each time.
With `C[C@]12CC[C@H]3[C@@H](CC=C4C[C@@H](O)CC[C@@]43C)[C@@H]1CC[C@@H]2n1ccnc1`, the IC50 in experiment [1], in experiment [2], in experiment [3], in experiment [4] and in experiment [5] was over 20 µM in each case.
As to `CC(C)CCC[C@@H](C)[C@H]1CC[C@H]2[C@@H]3CC=C4C[C@H](n5cc[n+](CC(=O)c6cccc(Br)c6)c5)CC[C@]4(C)[C@H]3CC[C@]12C`, the 50% inhibitory concentration (IC50) is 9.91 µM in experiment [1]; 1.7 µM in experiment [2]; 8.51 µM in experiment [3]; 7.22 µM in experiment [4]; 6.33 µM in experiment [5].
The like results for `Cc1cc2c(cc1C)[n+](Cc1ccccc1Br)cn2[C@@H]1CC[C@@]2(C)C(=CC[C@H]3[C@@H]4CC[C@H]([C@H](C)CCCC(C)C)[C@@]4(C)CC[C@@H]32)C1` were, in that order, 6.96 µM, 1.81 µM, 14.2 µM, 8.44 µM and 13.2 µM.
Turning to `CC(=O)O[C@H]1CC[C@@]2(C)C(=CC[C@H]3[C@@H]4CC[C@H](n5cc[n+](CC(=O)c6ccccc6)c5)[C@@]4(C)CC[C@@H]32)C1`, the IC50 in experiment [1] was 6.42 µM; in experiment [2], 12 µM; in experiment [3] it was 9.07 µM; in experiment [4] it was over 20 µM; in experiment [5], 11.1 µM.
For `CC(C)CCC[C@@H](C)[C@H]1CC[C@H]2[C@@H]3C[C@H](n4ccnc4)[C@]45C[C@H]4CC[C@]5(C)[C@H]3CC[C@]12C`, in that order: 2 µM, 2.12 µM, over 20 µM, 11.7 µM and 16.4 µM.
For `C[C@@H]1CC[C@@]2(OC1)O[C@H]1C[C@H]3[C@@H]4C[C@H](n5ccnc5)[C@]56C[C@H]5CC[C@]6(C)[C@H]4CC[C@]3(C)[C@H]1[C@@H]2C`, in that order: 8.33 µM, 10 µM, 19.7 µM, 10.3 µM and over 20 µM.
The like results for `COc1ccc(C(=O)C[n+]2ccn([C@H]3C[C@H]4[C@@H]5C[C@@H]6O[C@]7(CC[C@@H](C)CO7)[C@@H](C)[C@@H]6[C@@]5(C)CC[C@@H]4[C@@]4(C)CC[C@@H]5C[C@]534)c2)cc1` were, in that order, 1.25 µM, 7.32 µM, 4.49 µM, 7.18 µM and 7.03 µM.
On to `CC(=O)O[C@H]1C(=O)[C@@]2(C)[C@H]([C@H](OC(=O)c3ccccc3)[C@]3(O)C[C@H](OC(=O)[C@H](O)[C@@H](NC(=O)c4ccccc4)c4ccccc4)C(C)=C1C3(C)C)[C@]1(OC(C)=O)CO[C@@H]1C[C@@H]2O` [PACLITAXEL], for which the IC50 in experiment [1], in experiment [2], in experiment [3], in experiment [4] and in experiment [5] was under 0.008 µM in each case.
With `C[C@]12CC[C@H]3[C@@H](CC=C4C[C@@H](O)CC[C@@]43C)[C@@H]1CC[C@@H]2n1cc[n+](CC(=O)c2cccc(Br)c2)c1`, the IC50 in experiment [1] is 6.42 µM; in experiment [2] it was 14.9 µM; in experiment [3], 7.25 µM; in experiment [4], over 20 µM; in experiment [5], 9.78 µM.
The like results for `C[C@@H]1CC[C@@]2(OC1)O[C@H]1C[C@H]3[C@@H]4CC=C5C[C@H](n6c[n+](Cc7ccc8ccccc8c7)c7ccccc76)CC[C@]5(C)[C@H]4CC[C@]3(C)[C@H]1[C@@H]2C` were, in that order, 1.02 µM, 0.88 µM, 2.31 µM, 1.25 µM and 1.8 µM.
For `CC(=O)O[C@H]1CC[C@@]2(C)C(=CC[C@H]3[C@@H]4CC[C@H](n5cc[n+](CC(=O)c6ccc7ccccc7c6)c5)[C@@]4(C)CC[C@@H]32)C1`, in that order: 1.26 µM, 1.75 µM, 2.1 µM, 4.39 µM and 4.45 µM.
The like results for `C[C@@H]1CC[C@@]2(OC1)O[C@H]1C[C@H]3[C@@H]4CC=C5C[C@H](n6cc[n+](Cc7ccccc7Br)c6)CC[C@]5(C)[C@H]4CC[C@]3(C)[C@H]1[C@@H]2C` were, in that order, 0.43 µM, 0.95 µM, 1.41 µM, 1.22 µM and 1.66 µM.
As for `C[C@@H]1CC[C@@]2(OC1)O[C@H]1C[C@H]3[C@@H]4CC=C5C[C@@H](n6cc[n+](CC(=O)c7ccc8ccccc8c7)c6)CC[C@]5(C)[C@H]4CC[C@]3(C)[C@H]1[C@@H]2C`, the IC50 was 1.37 µM in experiment [1]; 5.49 µM in experiment [2]; 5.83 µM in experiment [3]; 3.49 µM in experiment [4]; 6.55 µM in experiment [5].
For `Cc1cc2c(cc1C)[n+](Cc1ccc3ccccc3c1)cn2[C@@H]1CC[C@@]2(C)C(=CC[C@H]3[C@@H]4C[C@@H]5O[C@]6(CC[C@@H](C)CO6)[C@@H](C)[C@@H]5[C@@]4(C)CC[C@@H]32)C1`, in that order: 0.42 µM, 0.59 µM, 1.9 µM, 5.12 µM and 1.6 µM.
For `C[C@]12CC[C@H]3[C@@H](CC=C4C[C@@H](O)CC[C@@]43C)[C@@H]1CC[C@@H]2n1cc[n+](Cc2ccccc2Br)c1`, in that order: 6.3 µM, 7.63 µM, 9.61 µM, over 20 µM and over 20 µM.
Regarding `Cc1cc2c(cc1C)[n+](CC(=O)c1ccccc1)cn2[C@@H]1CC[C@@]2(C)C(=CC[C@H]3[C@@H]4CC[C@H]([C@H](C)CCCC(C)C)[C@@]4(C)CC[C@@H]32)C1`, the IC50 came to 0.28 µM in experiment [1]; 1.77 µM in experiment [2]; 9.87 µM in experiment [3]; 8.11 µM in experiment [4]; 10.4 µM in experiment [5].
